The test system of assay [1] is senescence-accelerated mouse (SAMP8). The assay can be described thus: Water maze test in senescence-accelerated mouse (SAMP8). The assay is classed as in vivo. The note with it: 8 days. The protocol: Using senescence-accelerated mouse (accelerated-senescence-prone mice 8: SAMP8) and normal senescence mouse (accelerated-senescence-resistant mice 1: SAMR1) as a control thereof, a water maze test was performed. Male SAMP8 and SAMR1 (22- to 25-week-old) were available from Takeda Pharmaceutical Company Limited (Osaka, Japan). The mice were individually raised in a cage at 23±1° C., 12 hr light/dark cycle (lighted at 7:00 am), and allowed to freely ingest feed (solid feed) and water.
Racemate DCP-LA and 4 optical isomers DCP-LA (α,α-, α,β-, β,α-, β,β-DCP-LA), each dissolved in 0.1 ml polyethylene glycol (PEG), or 0.1 ml PEG were orally administered once a day from the day when the water maze test was started. For each group, the water maze test was performed twice a day for 8 days, and the time required to reach a platform (acquisition latency) was measured.
For the water maze test, a circular plastic water tank (diameter 90 cm, depth 36 cm) was used. The inside of the water tank was completely painted in black, and dark water with India ink was filled up to 20 cm from the bottom (22° C.). A platform (diameter 11 cm) painted in black was placed in water such that it was 1 cm below the water surface. The water tank was placed in a test room, and several marks seen by the mice from the water tank were put thereon. During the test, the position of the marks was not changed. A platform was placed a predetermined position from the equal distance from the center and the end of the water tank, namely, center of one quadrant. At one of the randomly selected 5 points, the mouse was released facing the wall of the water tank, and the time necessary for evacuating on the platform (acquisition latency) was measured. When smoothly evacuated, the mouse was left on the platform for 10 seconds. From the day of water maze test and during the test, polyethylene glycol (PEG) alone or racemate DCP-LA (1 mg/kg), α,α-DCP-LA (0.25 mg/kg), α,β-DCP-LA (0.25 mg/kg), β,α-DCP-LA (0.25 mg/kg), or β,β-DCP-LA (0.25 mg/kg), each dissolved in PEG, was orally administered every day. The water maze test was performed twice a day, and the second test was started at 2 min from the first test. The test was continuously performed for 8 days, and the average value (±SEM) of acquisition latency of continuous 2 days until the mouse reached the platform was calculated (each n=5).

A further assay has as its system nerve cell. The following applies: patent document 2; cited from earlier work.
A further assay deals with T1, PKC-ε (Homo sapiens, UniProt Q02156).
T1 sequence (Q02156 1-737): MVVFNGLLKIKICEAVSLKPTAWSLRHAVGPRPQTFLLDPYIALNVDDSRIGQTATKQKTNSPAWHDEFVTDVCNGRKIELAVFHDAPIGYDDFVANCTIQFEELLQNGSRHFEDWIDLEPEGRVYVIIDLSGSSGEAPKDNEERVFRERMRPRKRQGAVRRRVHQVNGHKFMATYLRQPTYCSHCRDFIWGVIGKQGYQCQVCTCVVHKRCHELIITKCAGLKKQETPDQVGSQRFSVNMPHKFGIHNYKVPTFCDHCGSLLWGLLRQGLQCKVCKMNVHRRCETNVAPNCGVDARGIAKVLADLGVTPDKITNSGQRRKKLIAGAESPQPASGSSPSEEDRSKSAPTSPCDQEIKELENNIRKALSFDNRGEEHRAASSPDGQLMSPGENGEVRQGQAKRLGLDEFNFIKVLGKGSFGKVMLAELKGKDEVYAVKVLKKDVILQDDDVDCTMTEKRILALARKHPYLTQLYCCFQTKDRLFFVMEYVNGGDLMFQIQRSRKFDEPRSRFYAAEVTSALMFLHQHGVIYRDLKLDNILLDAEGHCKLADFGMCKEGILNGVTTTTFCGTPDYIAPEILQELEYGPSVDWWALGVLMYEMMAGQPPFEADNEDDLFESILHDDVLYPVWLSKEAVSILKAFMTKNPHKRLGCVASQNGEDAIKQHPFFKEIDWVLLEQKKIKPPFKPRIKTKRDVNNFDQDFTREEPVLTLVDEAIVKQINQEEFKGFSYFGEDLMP
The following applies: non-patent document 1; cited from earlier work.

Assay [2] has as its system senescence-accelerated mouse. The note with it: non-patent document 2; cited from earlier work.
For assay [3], the system named is amyloid β peptide- or scopolamine-treated rat. The note with it: non-patent document 4; cited from earlier work.
Assay [4] deals with α7 nicotinic acetylcholine receptor (Homo sapiens, UniProt P36544). The following applies: α7 nicotinic acetylcholine receptor at the glutamatergic presynaptic terminal as target, non-patent document 5; cited from earlier work.
The next assay concerns hippocampus nerve cells. The note with it: non-patent document 3; cited from earlier work.
In assay [5] the test system is dopamine release from the striatum. The assay can be described thus: Dopamine release from rat striatum sections (HPLC). The assay is classed as cell-based.
Assay [6] has as its system serotonin release from the hypothalamus. Nature of the assay: Serotonin release from rat hypothalamus sections (HPLC). Type of assay: cell-based.
Assay [7] relates to glutamic acid release from the hippocampus. The assay can be described thus: Glutamic acid release from rat hippocampus sections (HPLC). The assay is classed as cell-based.
Setting [8] is: SAMP8, 0.25 mg/kg orally once a day.

α7 nicotinic acetylcholine receptor, sequence (P36544 23-502): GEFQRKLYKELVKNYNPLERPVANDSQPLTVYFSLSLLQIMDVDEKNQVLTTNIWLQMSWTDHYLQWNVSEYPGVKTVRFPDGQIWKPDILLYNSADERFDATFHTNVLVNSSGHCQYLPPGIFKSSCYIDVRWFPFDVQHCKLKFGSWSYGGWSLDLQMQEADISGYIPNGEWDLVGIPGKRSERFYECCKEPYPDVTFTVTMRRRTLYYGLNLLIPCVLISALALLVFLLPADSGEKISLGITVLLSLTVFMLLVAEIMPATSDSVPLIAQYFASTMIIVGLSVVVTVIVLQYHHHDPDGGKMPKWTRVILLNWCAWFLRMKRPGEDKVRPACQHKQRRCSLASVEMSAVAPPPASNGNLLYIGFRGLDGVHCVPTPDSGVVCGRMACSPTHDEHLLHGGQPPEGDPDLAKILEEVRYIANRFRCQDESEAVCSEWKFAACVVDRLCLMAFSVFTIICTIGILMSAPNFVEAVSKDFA

Turning to `CCCCCC1CC1CC1CC1CCCCCCCC(=O)O` (racemic) [racemate DCP-LA, 8-(2-(2-pentyl-cyclopropylmethyl)-cyclopropyl)-octanoic acid], the “acquisition latency as compared to the PEG administration group” value in assay [1] (SAMP8, 1 mg/kg orally once a day) was “shortened acquisition latency”. In the assay on nerve cell, the “nerve cell death induced by oxidative stress” value is “suppress nerve cell death”. For the same compound, at PKC-ε, the PKC-ε activation entry is “selectively and directly activates PKC-ε”. Moreover, the “cognitive dysfunction of senescence-accelerated mouse” value in assay [2] is “improves cognitive dysfunction”. The “cognitive dysfunction of amyloid β peptide- or scopolamine-treated rat” value in assay [3] is on record as “improves cognitive dysfunction”. In addition, the hippocampus synaptic transmission entry in assay [4] is on record as “promotes hippocampus synaptic transmission”. Further, the “release of γ aminobutyric acid from hippocampus nerve cells” value in the assay on hippocampus nerve cells is given as “increases release of γ aminobutyric acid”.
Regarding `CN(C)CCCn1cc(C2=C(c3c[nH]c4ccccc34)C(=O)NC2=O)c2ccccc21` [GF109203X, reference compound], in assay [5] (inhibitor 100 nM, FIG. 12), the “effect of inhibitor on α,β-DCP-LA enhancement of nicotine-caused dopamine release” value is “inhibited”. The “effect of inhibitor on α,β-DCP-LA enhancement of nicotine-caused serotonin release” value in assay [6] (inhibitor 100 nM, FIG. 15) was “inhibited”. For the same compound, in assay [7] (inhibitor 100 nM, FIG. 9), the “effect of inhibitor on α,β-DCP-LA enhancement of nicotine-caused glutamic acid release” value is given as “inhibited”.
As to `CN1CCCC1c1cccnc1` (centres unmarked) [nicotine, reference compound], the “dopamine release, substance alone vs non-treated group” value in assay [5] is given as “did not show a remarkable difference”. The “serotonin release, substance alone vs non-treated group” value in assay [6] was “did not show a remarkable difference”. Also, in [7], the “glutamic acid release, substance alone vs non-treated group” value is recorded as “did not show a remarkable difference”.
For the compound `CCCCC[C@@H]1C[C@@H]1C[C@H]1C[C@@H]1CCCCCCCC(=O)O` [α,α-DCP-LA, 8-[(1S,2R)-2-{(1R,2R)-2-pentylcyclopropylmethyl}-cyclopropyl]octanoic acid], in assay [1] (setting [8]), the “acquisition latency as compared to the PEG administration group” value is “shortened acquisition latency” and the “acquisition latency as compared to the racemate DCP-LA (1 mg/kg) administration group” value is “significantly shortened acquisition latency”.
Consider `CCCCC[C@H]1C[C@H]1C[C@H]1C[C@@H]1CCCCCCCC(=O)O` [β,α-DCP-LA, 8-[(1S,2R)-2-{(1S,2S)-2-pentylcyclopropylmethyl}-cyclopropyl]octanoic acid], for which the “acquisition latency as compared to the PEG administration group” value in assay [1] (setting [8]) is “shortened acquisition latency”.
For the compound `CCCCC[C@H]1C[C@H]1C[C@@H]1C[C@H]1CCCCCCCC(=O)O` [β,β-DCP-LA, 8-[(1R,2S)-2-{(1S,2S)-2-pentylcyclopropylmethyl}-cyclopropyl]octanoic acid], the “acquisition latency as compared to the PEG administration group” value in assay [1] (setting [8]) is on record as “shortened acquisition latency”.

The record behind these values is patent US9012500B2, “PKC-ε activator” (Nishizaki Bioinformation Research Institute, priority 2010, dated 2015).
